From US11566025B2, “Viral replication inhibitors” (Katholieke Universiteit Leuven, priority 2013, dated 2023)
pEC50: −log10 of the molar value. Like-named read-outs stand apart in the source and are kept apart here.

Legend:
Format in all cases: cell-based
[1] = test system: DENV-2 NGC; experiment: Antiviral activity against DENV-2 in Vero-B cells (viral RNA load by RT-qPCR); details: Dengue virus, DENV2, 96 h; DENV-2, Vero-B cells, inhibition of viral RNA replication by 50%, 4 days
[2] = in vitro; details: African green monkey
Procedure: (§1) Potential cytotoxic effects of the compounds were evaluated in uninfected quiescent Vero-B or Vero-M cells. Cells were seeded at 5×10^4 cells/well in a 96-well plate in the presence of two-fold serial dilutions (ranging from 50 μg/mL-0.004 μg/mL) of compound and incubated for 4 to 7 days. Culture medium was discarded and 100 μL 3-(4,5-dimethylthiazol-2-yl)-5-(3-carboxymethoxyphenyl)-2-(4-sulfophenyl)-2H-tetrazolium/phenazinemethosuIfate (MTS/PMS; Promega, Leiden, The Netherlands) in PBS was added to each well. Following a 2-hour incubation period at 37° C., the optical density was determined at 498 nm. Cytotoxic activity was calculated using the following formula: % cell viability=100× (ODcompound/ODCC), where ODcompound and ODCC correspond to the optical density at 498 nm of the uninfected cell cultures treated with compound and that of uninfected, untreated cell cultures, respectively. The 50% cytotoxic concentration (i.e., the concentration that reduces the total cell number with 50%; CC50) was calculated using linear interpolation.

[3] = test system: Vero-B cells; experiment: in vitro; details: African green monkey
Procedure: as §1

[4] = test system: DENV-1 Djibouti strain D1/H/IMTSSA/98/606; experiment: Antiviral activity against DENV-1 in Vero-B cells (viral RNA load by RT-qPCR); details: Dengue virus, DENV1, 168 h; DENV-1, Vero-B cells, inhibition of viral RNA replication by 50%, 7 days
[5] = test system: DENV-3 strain H87 prototype; experiment: Antiviral activity against DENV-3 in Vero-B cells (viral RNA load by RT-qPCR); details: Dengue virus
[6] = test system: DENV-4 strain H241; experiment: Antiviral activity against DENV-4 in Vero-M cells (viral RNA load by RT-qPCR); details: Dengue virus, DENV4, 120 h; DENV-4, Vero-M cells, inhibition of viral RNA replication by 50%, 5 days
[7] = DENV3, 168 h, DENV-3, Vero-B cells, inhibition of viral RNA replication by 50%, 7 days, read-out: EC50

Compound	pEC50 [1]	CC50 ([2]; CC50 (μM)) [µM]	CC50 [3] [nM]	pEC50 [4]	pEC50 [5, 7]	pEC50 [6]	CC50 [2] [µM]	pEC50 ([5]; DENV3, Vero B, 168 h)
COc1cc(NC(C(=O)N2CCOCC2c2ccccc2)c2ccc(C)cc2)cc(OC)c1 (stereo not drawn) [CPD-312]	5.25	> 112						
COc1cccc(NC(C(=O)c2nn(C)cc2-c2ccccc2)c2cncc(F)c2)c1 (stereo not drawn) [CPD-004]	5.81	> 120	> 120000	5.01				
COc1cccc(NC(C(=O)c2nn(C)cc2-c2ccccc2)c2ccccc2)c1 (stereo not drawn) [CPD-001]	6.49	> 125	> 126000	5.58	5.67			
COc1cc(NC(C(=O)c2cn(C)c(Br)c2-c2ccccc2)c2ccccc2)cc(OC)c1 (stereo not drawn) [CPD-311]	7.33	> 99	> 99000	7.80	6.58			
COc1cc(NC(C(=O)N2CCCCCC2c2ccccc2)c2ccc(C)cc2)cc(OC)c1 (stereo not drawn) [CPD-242]	5.94	> 109						
COc1cccc(NC(C(=O)c2nn(C)cc2-c2cncnc2)c2ccc(C)cc2)c1 (stereo not drawn) [CPD-009]	5.48	> 120						
COc1cccc(NC(C(=O)c2nn(C)cc2-c2ccccc2)c2ccc(F)cc2)c1 (stereo not drawn) [CPD-008]	7.02	> 120	> 120000	5.58	6.00	5.32	> 120	
COc1cc(NC(C(=O)c2nn(C)cc2-c2ccccc2)c2ccc(C)cc2)cc(OC)c1 (stereo not drawn) [CPD-015]	7.80	> 113	> 113000	6.88		5.50	> 113	5.93
COc1cc(NC(C(=O)N2CCS(=O)(=O)CC2c2ccccc2)c2ccc(C)cc2)cc(OC)c1 (stereo not drawn) [CPD-314]	5.35	> 101						
COc1cncc(NC(C(=O)c2nn(C)cc2-c2ccccc2)c2ccc(OC)nc2)c1 (stereo not drawn) [CPD-012]	4.15	> 116						
COc1cccc(NC(C(=O)c2nn(C)cc2-c2cnn(C)c2)c2ccccc2)c1 (stereo not drawn) [CPD-007]	4.81	> 125						
COc1cccc(NC(C(=O)c2cscc2-c2ccccc2)c2ccccc2)c1 (stereo not drawn) [CPD-025]		> 125		5.44				
COc1cc(NC(C(=O)N2CCSCC2c2ccccc2)c2ccc(C)cc2)cc(OC)c1 (stereo not drawn) [CPD-313]	6.02	> 108						
COc1cccc(NC(C(=O)c2nn(C)cc2-c2ccc(C#N)cc2)c2cc3ccccn3n2)c1 (stereo not drawn) [CPD-014]	5.64	> 108						
COc1cccc(NC(C(=O)c2nn(C)cc2-c2cccc(F)c2)c2ccccc2)c1 (stereo not drawn) [CPD-006]	6.29	> 120						
COc1cccc(NC(C(=O)c2nn(C)cc2-c2ccc(C)nc2)c2ccccc2)c1 (stereo not drawn) [CPD-019]	4.40	80						

Compound	pEC50 [1]	CC50 ([2]; CC50 (μM)) [µM]	CC50 [3] [nM]	pEC50 [4]	pEC50 [5, 7]	pEC50 [6]	CC50 [2] [µM]	pEC50 ([5]; DENV3, Vero B, 168 h)
COc1cccc(NC(C(=O)c2nn(C)cc2-c2ccncc2)c2ccc(C)cc2)c1 (stereo not drawn) [CPD-010]	5.68	> 121						
COc1cccc(NC(C(=O)c2nn(C)cc2-c2ccc3scnc3c2)c2ccc(OC)nc2)c1 (stereo not drawn) [CPD-016]	5.73	> 103						
COc1cc(NC(C(=O)N2CCCC2c2ccccc2)c2ccc(C)cc2)cc(OC)c1 (stereo not drawn) [CPD-028]	6.66	> 116	70000	4.76		5.18	> 116	
COc1cc(NC(C(=O)N2CCN(C)CC2c2ccccc2)c2ccc(C)cc2)cc(OC)c1 (stereo not drawn) [CPD-238]	5.55	> 99						
COc1cccc(NC(C(=O)c2nn(C)cc2-c2ccc(F)cc2)c2ccccc2)c1 (stereo not drawn) [CPD-002]	7.02	> 120	> 120000	5.68	6.10	5.09	> 120	
COc1cc(NC(C(=O)N2CCCCC2c2ccccc2)c2ccc(C)cc2)cc(OC)c1 (stereo not drawn) [CPD-027]	5.92			5.68	5.14			
COc1cccc(NC(C(=O)c2nn(C)cc2-c2ccccc2F)c2ccccc2)c1 (stereo not drawn) [CPD-005]	6.42	> 120						
COc1cccc(NC(C(=O)c2nn(C)cc2-c2cccs2)c2ccc(OC)nc2)c1 (stereo not drawn) [CPD-018]	5.90	> 115						
COc1cccc(NC(C(=O)c2nn(C)cc2-c2ccc3c(c2)CCO3)c2ccc(OC)nc2)c1 (stereo not drawn) [CPD-017]	5.79	> 106						
COc1cccc(NC(C(=O)c2c[nH]cc2-c2ccccc2)c2ccccc2)c1 (stereo not drawn) [CPD-024]	6.68			5.82	5.72	5.80	10	
COc1cccc(NC(C(=O)c2n[nH]cc2-c2ccccc2)c2ccccc2)c1 (stereo not drawn) [CPD-023]	6.35			6.03				
COc1cccc(NC(C(=O)c2nn(C)cc2-c2ccccc2)c2cc3ccccn3n2)c1 (stereo not drawn) [CPD-013]	6.46	> 114	> 114000	5.65				
COc1cccc(NC(C(=O)c2cn(C)nc2-c2ccccc2)c2ccccc2)c1 (stereo not drawn) [CPD-026]		> 126		5.62				
COc1cccc(NC(C(=O)c2nn(C)cc2-c2c(C)noc2C)c2ccc(C)cc2)c1 (stereo not drawn) [CPD-020]	4.88	> 116						
COc1cccc(NC(C(=O)c2nn(C)cc2-c2ccccc2)c2cccnc2)c1 (stereo not drawn) [CPD-003]	5.78	> 125	104000	5.15				
COc1cccc(NC(C(=O)c2nn(C)cc2-c2ccccc2)c2cnc(OC)cn2)c1 (stereo not drawn) [CPD-011]	6.13	> 116						
